Laboratory results: article PMC10574557, “The Inhibitory Effect of Magnolol on the Human TWIK1 Channel Is Related to G229 and T225 Sites” (Molecules, 2023)
Changes are numbered by the printed parent chain.

Columns and labels:
Format in all cases: cell-based
[1] = biological target: T1, TWIK1 (K2P1.1/KCNK1) (Homo sapiens, UniProt O00180, S224A); experiment: whole-cell patch clamp, transiently transfected HEK293, Hill fit
T1 construct: full-length cDNA (OriGene) in pcDNA3.1(neo+), stably expressed in HEK293; mutants transiently transfected in HEK293 with CD8; homodimer
T1 sequence (O00180 1-336 S224A): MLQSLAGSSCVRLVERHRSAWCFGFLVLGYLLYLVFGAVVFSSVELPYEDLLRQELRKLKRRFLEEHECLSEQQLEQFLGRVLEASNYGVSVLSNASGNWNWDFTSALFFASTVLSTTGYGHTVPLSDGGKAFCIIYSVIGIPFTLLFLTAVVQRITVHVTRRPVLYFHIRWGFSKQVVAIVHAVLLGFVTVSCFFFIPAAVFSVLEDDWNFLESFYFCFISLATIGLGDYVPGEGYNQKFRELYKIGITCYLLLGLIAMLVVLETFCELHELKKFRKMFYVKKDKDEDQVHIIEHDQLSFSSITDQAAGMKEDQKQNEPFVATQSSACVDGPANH

[2] = biological target: T2, TWIK1 (K2P1.1/KCNK1) (Homo sapiens, UniProt O00180, L223A); experiment: as above
T2 construct: full-length cDNA (OriGene) in pcDNA3.1(neo+), stably expressed in HEK293; mutants transiently transfected in HEK293 with CD8; homodimer
T2 sequence (O00180 1-336 L223A): T1 sequence (O00180 1-336 S224A) with L223A, A224S

[3] = biological target: T3, TWIK1 (K2P1.1/KCNK1) (Homo sapiens, UniProt O00180, T225A); experiment: as above
T3 construct: full-length cDNA (OriGene) in pcDNA3.1(neo+), stably expressed in HEK293; mutants transiently transfected in HEK293 with CD8; homodimer
T3 sequence (O00180 1-336 T225A): T1 sequence (O00180 1-336 S224A) with A224S, T225A

[4] = biological target: T4, TWIK1 (K2P1.1/KCNK1) (Homo sapiens, UniProt O00180, I140A); experiment: as above
T4 construct: full-length cDNA (OriGene) in pcDNA3.1(neo+), stably expressed in HEK293; mutants transiently transfected in HEK293 with CD8; homodimer
T4 sequence (O00180 1-336 I140A): T1 sequence (O00180 1-336 S224A) with I140A, A224S

[5] = biological target: T5, TWIK1 (K2P1.1/KCNK1) (Homo sapiens, UniProt O00180); experiment: whole-cell patch clamp, HEK293-TWIK1 stable line, Hill fit
T5 construct: full-length cDNA (OriGene) in pcDNA3.1(neo+), stably expressed in HEK293; mutants transiently transfected in HEK293 with CD8; homodimer
T5 sequence (O00180 1-336): T1 sequence (O00180 1-336 S224A) with A224S

[6] = biological target: T6, TWIK1 (K2P1.1/KCNK1) (Homo sapiens, UniProt O00180, G229A); experiment: whole-cell patch clamp, transiently transfected HEK293, Hill fit
T6 construct: full-length cDNA (OriGene) in pcDNA3.1(neo+), stably expressed in HEK293; mutants transiently transfected in HEK293 with CD8; homodimer
T6 sequence (O00180 1-336 G229A): T1 sequence (O00180 1-336 S224A) with A224S, G229A

IC50 [1]: 7.43 ± 3.2 µM
IC50 [2]: 9.55 ± 1.62 µM
IC50 [3]: 21.8 ± 7.93 µM
IC50 [4]: 10.2 ± 1.07 µM
IC50 [5]: 6.21 ± 0.13 µM
IC50 [6]: 20.8 ± 3.2 µM
Compound: C=CCc1ccc(O)c(-c2cc(CC=C)ccc2O)c1 [magnolol]
